Laboratory results: patent US10196390B2, “TYK2 inhibitors and uses thereof” (Nimbus Lakshmi, Inc., priority 2014, dated 2019)
pKi: −log10 of the molar value.

Experiments:
JAK2 = JAK2 (Homo sapiens (Human), UniProt O60674); experiment: JAK2 activity inhibition assay (radioactive kinase assay / Caliper assay); type: biochemical; details: read-out: JAK2 Ki
Protocol: The caliper machine employs an off chip mobility shift assay to detect phosphorylated peptide substrates from kinase assays, using microfluidics technology. […] Compounds are serially diluted in DMSO then further diluted in assay buffer (25 mM HEPES, pH 7.5, 0.01% Brij-35, 0.01% Triton, 0.5 mM EGTA). 5 ul of diluted compound was added into wells first, then 10 ul of enzyme mix was added into wells, followed by 10 uL of substrate mix (peptide and ATP in 10 mM MgCl2) to start reaction. Reaction was incubated at 28° C. for 25 min and then added 25 ul stop buffer (100 mM HEPES, 0.015% Brij-35, 50 mM EDTA), followed by reading with Caliper.

TYK2 = TYK2 (Homo sapiens (Human), UniProt P29597); experiment: Tyk2 activity inhibition assay (radioactive kinase assay / Caliper assay); type: biochemical
Protocol: Peptide substrate, [[…]], (20 μM) is prepared in reaction buffer (20 mM Hepes pH 7.5, 10 mM MgCl2, 1 mM EGTA, 0.02% Brij35, 0.02 mg/mL BSA, […], 2 mM DTT, 1% DMSO. TYK2 (Invitrogen) kinase is added, followed by compounds in DMSO. 33PATP is added to initiate the reaction in ATP at 10 μM. Kinase reaction is incubated for 120 min at room temp and reactions are spotted onto P81 ion exchange paper (Whatman #3698-915), and then washed extensively in 0.75% phosphoric acid, prior to reading the radioactivity counts. For JAK2 (Invitrogen) kinase assay the peptide substrate poly[Glu:Tyr](4:1), 0.2 mg/ml is used, in the reaction carried out the same as for TYK2.
The caliper machine employs an off chip mobility shift assay to detect phosphorylated peptide substrates from kinase assays, using microfluidics technology. The assays are carried out at ATP concentration equivalent to the ATP Km, and at 1 mM ATP. Compounds are serially diluted in DMSO then further diluted in assay buffer (25 mM HEPES, pH 7.5, 0.01% Brij-35, 0.01% Triton, 0.5 mM EGTA). 5 ul of diluted compound was added into wells first, then 10 ul of enzyme mix was added into wells, followed by 10 uL of substrate mix (peptide and ATP in 10 mM MgCl2) to start reaction. Reaction was incubated at 28° C. for 25 min and then added 25 ul stop buffer (100 mM HEPES, 0.015% Brij-35, 50 mM EDTA), followed by reading with Caliper. JAK2 at 1 nM final concentration and TYK2 at 9.75 nM are from Carna, and substrates used are ATP at 20 and 16 uM, respectively. JAK2 assay uses peptide 22 and TYK2 uses peptide 30 (Caliper), each at 3 uM.

JAK2, sequence (O60674 whole entry): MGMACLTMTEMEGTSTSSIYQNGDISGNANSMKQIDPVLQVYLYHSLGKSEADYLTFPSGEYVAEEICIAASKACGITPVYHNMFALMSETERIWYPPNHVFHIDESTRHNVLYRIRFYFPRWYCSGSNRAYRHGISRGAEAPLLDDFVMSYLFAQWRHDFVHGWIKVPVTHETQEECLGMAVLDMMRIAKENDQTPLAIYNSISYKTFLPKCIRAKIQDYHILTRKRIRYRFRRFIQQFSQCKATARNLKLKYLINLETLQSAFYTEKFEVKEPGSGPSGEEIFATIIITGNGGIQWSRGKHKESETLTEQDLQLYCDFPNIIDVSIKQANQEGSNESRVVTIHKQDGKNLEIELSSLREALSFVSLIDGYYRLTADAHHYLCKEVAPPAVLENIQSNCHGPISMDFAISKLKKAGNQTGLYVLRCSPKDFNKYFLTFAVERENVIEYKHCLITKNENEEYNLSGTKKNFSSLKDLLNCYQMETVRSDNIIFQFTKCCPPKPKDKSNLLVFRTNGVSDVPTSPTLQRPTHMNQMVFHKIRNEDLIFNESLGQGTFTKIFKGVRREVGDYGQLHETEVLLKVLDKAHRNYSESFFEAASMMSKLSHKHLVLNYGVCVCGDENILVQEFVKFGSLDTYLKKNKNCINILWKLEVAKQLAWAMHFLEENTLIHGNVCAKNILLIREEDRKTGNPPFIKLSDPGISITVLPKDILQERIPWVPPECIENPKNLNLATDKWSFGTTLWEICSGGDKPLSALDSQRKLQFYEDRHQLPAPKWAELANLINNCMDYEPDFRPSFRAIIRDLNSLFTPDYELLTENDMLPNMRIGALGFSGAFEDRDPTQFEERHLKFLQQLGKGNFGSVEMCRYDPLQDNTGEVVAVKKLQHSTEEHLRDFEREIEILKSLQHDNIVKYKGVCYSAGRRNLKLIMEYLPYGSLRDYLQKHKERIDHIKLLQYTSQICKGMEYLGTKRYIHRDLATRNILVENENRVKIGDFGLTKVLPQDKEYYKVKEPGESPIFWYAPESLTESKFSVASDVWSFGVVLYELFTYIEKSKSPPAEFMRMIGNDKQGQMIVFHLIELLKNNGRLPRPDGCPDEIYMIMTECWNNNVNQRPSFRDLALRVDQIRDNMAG
TYK2, sequence (P29597 whole entry): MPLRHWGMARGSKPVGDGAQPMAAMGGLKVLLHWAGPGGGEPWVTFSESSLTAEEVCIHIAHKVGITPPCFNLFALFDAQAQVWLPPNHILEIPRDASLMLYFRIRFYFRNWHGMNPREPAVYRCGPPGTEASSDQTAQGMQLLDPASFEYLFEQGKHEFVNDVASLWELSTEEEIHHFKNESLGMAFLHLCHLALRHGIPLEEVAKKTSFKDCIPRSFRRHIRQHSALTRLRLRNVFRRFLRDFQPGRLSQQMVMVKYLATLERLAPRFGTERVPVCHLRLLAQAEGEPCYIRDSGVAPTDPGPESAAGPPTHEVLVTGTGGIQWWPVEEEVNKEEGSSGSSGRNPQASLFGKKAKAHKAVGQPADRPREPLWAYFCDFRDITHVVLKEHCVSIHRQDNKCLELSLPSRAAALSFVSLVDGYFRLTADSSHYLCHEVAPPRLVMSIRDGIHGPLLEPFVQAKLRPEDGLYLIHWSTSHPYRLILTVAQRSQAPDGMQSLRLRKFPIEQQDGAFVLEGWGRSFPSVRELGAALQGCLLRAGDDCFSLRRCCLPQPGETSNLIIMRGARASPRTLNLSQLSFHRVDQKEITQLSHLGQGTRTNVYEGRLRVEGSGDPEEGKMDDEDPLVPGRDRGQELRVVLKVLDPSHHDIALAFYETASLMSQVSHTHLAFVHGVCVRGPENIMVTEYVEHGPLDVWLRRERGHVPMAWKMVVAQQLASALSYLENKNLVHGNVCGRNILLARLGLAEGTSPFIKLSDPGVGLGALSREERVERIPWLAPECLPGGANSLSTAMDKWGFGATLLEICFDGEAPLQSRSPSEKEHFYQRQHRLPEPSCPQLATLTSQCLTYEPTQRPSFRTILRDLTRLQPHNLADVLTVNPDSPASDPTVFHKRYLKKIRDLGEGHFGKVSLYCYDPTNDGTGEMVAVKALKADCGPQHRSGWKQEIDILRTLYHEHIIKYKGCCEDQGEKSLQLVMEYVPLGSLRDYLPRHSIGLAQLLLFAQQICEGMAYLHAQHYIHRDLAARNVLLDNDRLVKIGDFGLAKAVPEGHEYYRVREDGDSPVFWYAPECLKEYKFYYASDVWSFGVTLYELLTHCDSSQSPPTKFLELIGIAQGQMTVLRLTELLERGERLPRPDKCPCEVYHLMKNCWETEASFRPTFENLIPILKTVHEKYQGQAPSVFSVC

Compound: O=C1NCc2nc(-c3c(F)cccc3F)cc(Nc3ccc(F)cc3)c21 [Compound I-235, 2-(2,6-difluorophenyl)-4-((4-fluorophenyl)amino)-6,7-dihydro-5H-pyrrolo[3,4-b]pyridin-5-one]
- pKi (JAK2): 6.00 to 7.00

Compound: CCNC(=O)c1cnc(Nc2cc(-c3c(F)cccc3F)nc3c2C(=O)NC3)cc1F [Compound I-286, 6-((2-(2,6-difluorophenyl)-5-oxo-6,7-dihydro-5H-pyrrolo[3,4-b]pyridin-4-yl)amino)-N-ethyl-4-fluoronicotinamide]
- pKi (JAK2): 6.00 to 7.00

Compound: O=C(Cc1ccc(Nc2nc(-c3c(F)cccc3F)nc3c2C(=O)NC3)cc1)NC1CNC1 [Compound I-12, N-(azetidin-3-yl)-2-(4-((2-(2,6-difluorophenyl)-5-oxo-6,7-dihydro-5H-pyrrolo[3,4-d]pyrimidin-4-yl)amino)phenyl)acetamide]
- pKi (JAK2): 6.00 to 7.00

Compound: O=C1NCc2nc(-c3c(F)cccc3F)nc(Nc3ccc(S(=O)(=O)C(F)(F)F)cc3)c21 [Compound I-236, 2-(2,6-difluorophenyl)-4-((4-((trifluoromethyl)sulfonyl)phenyl)-amino)-6,7-dihydro-5H-pyrrolo[3,4-d]pyrimidin-5-one]
- pKi (TYK2): 7.00 to 8.00

Compound: C[C@@H](C(=O)O)c1ccc(Nc2nc(-c3c(F)cccc3F)nc3c2C(=O)NC3)cc1 [Compound I-190, (R)-2-(4-((2-(2,6-difluorophenyl)-5-oxo-6,7-dihydro-5H-pyrrolo-[3,4-d]pyrimidin-4-yl)amino)phenyl)propanoic Acid]
- pKi (JAK2): 6.00 to 7.00

Compound: CC1(O)CCN(C(=O)c2ccc(Nc3cc(-c4c(F)cccc4F)nc4c3C(=O)NC4)cc2)CC1 [Compound I-275, 2-(2,6-difluorophenyl)-4-((4-(4-hydroxy-4-methylpiperidine-1-carbonyl)phenyl)amino)-6,7-dihydro-5H-pyrrolo[3,4-b]pyridin-5-one]
- pKi (JAK2): 7.00 to 8.00

Compound: CN1CCN(C)[C@](C)(c2ccc(Nc3nc(-c4c(F)cccc4F)nc4c3C(=O)NC4)cc2)C1=O [Compound I-210, (R)-2-(2,6-difluorophenyl)-4-((4-(1,2,4-trimethyl-3-oxopiperazin-2-yl)phenyl)amino)-6,7-dihydro-5H-pyrrolo[3,4-d]pyrimidin-5-one]
- pKi (JAK2): 7.00 to 8.00

Compound: CN1CCN(C)C(C)(c2ccc(Nc3nc(-c4c(F)cccc4F)nc4c3C(=O)NC4)cc2)C1=O (stereo not drawn) [Compound I-209, 2-(2,6-difluorophenyl)-4-((4-(1,2,4-trimethyl-3-oxopiperazin-2-yl)phenyl)amino)-6,7-dihydro-5H-pyrrolo[3,4-d]pyrimidin-5-one]
- pKi (JAK2): 7.00 to 8.00

Compound: CC[C@]1(c2ccc(Nc3nc(-c4c(F)cccc4F)nc4c3C(=O)NC4)cc2)CCNC1=O [Compound I-177, (R)-2-(2,6-difluorophenyl)-4-((4-(3-ethyl-2-oxopyrrolidin-3-yl)phenyl)amino)-6,7-dihydro-5H-pyrrolo[3,4-d]pyrimidin-5-one]
- pKi (JAK2): 7.00 to 8.00

Compound: CC1COCCN1c1ccc(Nc2cc(-c3c(F)cccc3F)nc3c2C(=O)NC3)nc1 (stereo not drawn) [Compound I-244, 2-(2,6-difluorophenyl)-4-((5-(3-methylmorpholino)pyridin-2-yl)amino)-6,7-dihydro-5H-pyrrolo[3,4-b]pyridin-5-one]
- pKi (JAK2): 7.00 to 8.00

Compound: C[C@H](C(=O)O)c1ccc(Nc2nc(-c3c(F)cccc3F)nc3c2C(=O)NC3)cc1 [Compound I-191, (S)-2-(4-((2-(2,6-difluorophenyl)-5-oxo-6,7-dihydro-5H-pyrrolo-[3,4-d]pyrimidin-4-yl)amino)phenyl)propanoic Acid]
- pKi (JAK2): 6.00 to 7.00

Compound: CC1(C)CCN(c2ccc(Nc3cc(-c4c(F)cccc4F)nc4c3C(=O)NC4)nc2)CC1 [Compound I-252, 2-(2,6-difluorophenyl)-4-((5-(4,4-dimethylpiperidin-1-yl)pyridin-2-yl)amino)-6,7-dihydro-5H-pyrrolo[3,4-b]pyridin-5-one]
- pKi (JAK2): 6.00 to 7.00

Compound: COC(=O)C(C)c1ccc(Nc2nc(-c3c(F)cccc3F)nc3c2C(=O)NC3)cc1 (stereo not drawn) [Compound I-188, methyl 2-(4-((2-(2,6-difluorophenyl)-5-oxo-6,7-dihydro-5H-pyrrolo[3,4-d]pyrimidin-4-yl)amino)phenyl)propanoate]
- pKi (JAK2): 7.00 to 8.00

Compound: CCNC(=O)c1ccc(Nc2cc(-c3c(F)cccc3Cl)nc3c2C(=O)NC3)nc1 [Compound I-146, 6-((2-(2-chloro-6-fluorophenyl)-5-oxo-6,7-dihydro-5H-pyrrolo[3,4-b]pyridin-4-yl)amino)-N-ethylnicotinamide]
- pKi (JAK2): 7.00 to 8.00

Compound: COc1ccc(Nc2cc(-c3c(F)cccc3F)nc3c2C(=O)NC3C)nc1 (stereo not drawn) [Compound I-239, 2-(2,6-difluorophenyl)-4-((5-methoxypyridin-2-yl)amino)-7-methyl-6,7-dihydro-5H-pyrrolo[3,4-b]pyridin-5-one]
- pKi (JAK2): 6.00 to 7.00

Compound: COCCNC(=O)c1ccc(Nc2cc(-c3c(F)cccc3F)nc3c2C(=O)NC3)nc1 [Compound I-141, 6-((2-(2,6-difluorophenyl)-5-oxo-6,7-dihydro-5H-pyrrolo[3,4-b]pyridin-4-yl)amino)-N-(2-methoxyethyl)nicotinamide]
- pKi (JAK2): 7.00 to 8.00

Compound: C[C@@H]1CCC[C@H](C)N1c1ccc(Nc2cc(-c3c(F)cccc3F)nc3c2C(=O)NC3)nc1 [Compound I-261, 2-(2,6-difluorophenyl)-4-((5-((2R,6S)-2,6-dimethylpiperidin-1-yl)pyridin-2-yl)amino)-6,7-dihydro-5H-pyrrolo[3,4-b]pyridin-5-one]
- pKi (JAK2): 7.00 to 8.00

Compound: O=C1NCc2nc(-c3c(F)cccc3F)cc(Nc3ccc(N4C5COCC4C5)cn3)c21 [Compound I-279, 4-((5-(3-oxa-6-azabicyclo[3.1.1]heptan-6-yl)pyridin-2-yl)amino)-2-(2,6-difluorophenyl)-6,7-dihydro-5H-pyrrolo[3,4-b]pyridin-5-one]
- pKi (JAK2): 7.00 to 8.00

Compound: O=C1NCc2nc(-c3c(F)cccc3F)cc(Nc3ccc(C4=CCOCC4)cn3)c21 [Compound I-249, 2-(2,6-difluorophenyl)-4-((5-(3,6-dihydro-2H-pyran-4-yl)pyridin-2-yl)amino)-6,7-dihydro-5H-pyrrolo[3,4-b]pyridin-5-one]
- pKi (JAK2): 7.00 to 8.00

Compound: O=C1NCc2nc(-c3c(F)cccc3F)cc(Nc3ccc(N4CCCC(O)C4)cn3)c21 (stereo not drawn) [Compound I-269, 2-(2,6-difluorophenyl)-4-((5-(3-hydroxypiperidin-1-yl)pyridin-2-yl)amino)-6,7-dihydro-5H-pyrrolo[3,4-b]pyridin-5-one]
- pKi (JAK2): 7.00 to 8.00

Compound: CCC1(c2ccc(Nc3nc(-c4c(F)cccc4F)nc4c3C(=O)NC4)cc2)CCNC1=O (stereo not drawn) [Compound I-175, 2-(2,6-difluorophenyl)-4-((4-(3-ethyl-2-oxopyrrolidin-3-yl)phenyl)amino)-6,7-dihydro-5H-pyrrolo[3,4-d]pyrimidin-5-one]
- pKi (JAK2): 7.00 to 8.00

Compound: CC1(c2ccc(Nc3nc(-c4c(F)cccc4F)nc4c3C(=O)NC4)cc2)COC1 [Compound I-255, 2-(2,6-difluorophenyl)-4-((4-(3-methyloxetan-3-yl)phenyl)-amino)-6,7-dihydro-5H-pyrrolo[3,4-d]pyrimidin-5-one]
- pKi (JAK2): 7.00 to 8.00

Compound: CC1(C)CCCC(=O)N1c1ccc(Nc2cc(-c3c(F)cccc3F)nc3c2C(=O)NC3)nc1 [Compound I-284, 2-(2,6-difluorophenyl)-4-((5-(2,2-dimethyl-6-oxopiperidin-1-yl)pyridin-2-yl)amino)-6,7-dihydro-5H-pyrrolo[3,4-b]pyridin-5-one]
- pKi (JAK2): 7.00 to 8.00

Compound: O=C1NCc2nc(-c3c(F)cccc3F)cc(Nc3ccc(C4(O)CCOCC4)cn3)c21 [Compound I-251, 2-(2,6-difluorophenyl)-4-((5-(4-hydroxytetrahydro-2H-pyran-4-yl)pyridin-2-yl)amino)-6,7-dihydro-5H-pyrrolo[3,4-b]pyridin-5-one]
- pKi (JAK2): 7.00 to 8.00

Compound: CC1(C)CN(c2ccc(Nc3cc(-c4c(F)cccc4F)nc4c3C(=O)NC4)nc2)CC[C@@H]1O [Compound I-267, (S)-2-(2,6-difluorophenyl)-4-((5-(4-hydroxy-3,3-dimethylpiperidin-1-yl)pyridin-2-yl)amino)-6,7-dihydro-5H-pyrrolo[3,4-b]pyridin-5-one]
- pKi (JAK2): 7.00 to 8.00

Compound: O=C1NCc2nc(-c3c(F)cccc3F)cc(Nc3ccc(C(=O)N4CCOCC4)cn3)c21 [Compound I-212, 2-(2,6-difluorophenyl)-4-((5-(morpholine-4-carbonyl)pyridin-2-yl)amino)-6,7-dihydro-5H-pyrrolo[3,4-b]pyridin-5-one]
- pKi (JAK2): 7.00 to 8.00

Compound: O=C1NCc2nc(-c3c(F)cccc3F)c(F)c(Nc3ccc(N4CCOCC4)cn3)c21 [Compound I-254, 2-(2,6-difluorophenyl)-3-fluoro-4-((5-morpholinopyridin-2-yl)amino)-6,7-dihydro-5H-pyrrolo[3,4-b]pyridin-5-one]
- pKi (JAK2): 7.00 to 8.00
